The test system of the assay is mice. Nature of the assay: Neuropharmacological Assay (SmartCube): automated behavioral signature of compound-treated mice compared with a database of reference drug classes. The note with it: for AG / AN / CE / HL / MS / PS / SH / UK / AD / AP / AX: probability that activity matches this class of agents, 3.0 mg/kg i.p., 15 min before test. The class given is in vivo. A digest of the protocol: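 Mice dosed i.p. 15 min before SmartCube testing, with compound in N-methyl-2-pyrrolidone/polyethylene glycol/propylene glycol. Video-captured behaviour is compared with a reference-drug signature database to give per-class probabilities, reported at 3.0 mg/kg. MED, from doses usually 0.3–10 mg/kg, is the lowest dose giving ≥45% total activity.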

Where [1] appears, read: dose having 45% or more total activity in SmartCube, i.p., if only one dose was tested, that dose is shown, hydrochloride.

This note sets out measurements from patent US20260274814A1, “THIENYL COMPOUNDS FOR THE TREATMENT OF A CENTRAL NERVOUS SYSTEM DISEASE OR DISORDER” (Coreterra Therapeutics, Inc., priority 2023, published 2026).

Counter-ions that a name gives are not always drawn. A value given as a limit tells only on which side of the number the result lay.

Turning to `CNC1CCc2csc(F)c2C1` (single isomer, unassigned) [Compound 74, 3-fluoro-N-methyl-4,5,6,7-tetrahydro-2-benzothiophen-5-amine hydrochloride], the AG entry is “ND (^ <4%)”, the AN entry is recorded as “ND (^ <4%)”, the CE result is “ND (^ <4%)” and the HL result is “ND (^ <4%)”. Besides, the MS entry is recorded as “ND (^ <4%)”, the PS result is on record as “ND (^ <4%)”, the SH entry was “ND (^ <4%)” and the UK result is given as “ND (^ <4%)”. In addition, the “MED (minimal effective dose)” value under setting [1] was 3 mpk. Under “hydrochloride, 3 mg/kg”, the AD entry is “+ (≥4%)”, the AP result was “++++ (≥74%)” and the AX entry is recorded as “ND (^ <4%)”.
`CNC1CCc2c(csc2F)C1` (single isomer, unassigned) [Compound 75, 1-fluoro-N-methyl-4,5,6,7-tetrahydro-2-benzothiophen-5-amine hydrochloride]: the AD entry is listed as “ND (^ <4%)”, the AG entry was “ND (^ <4%)”, the AN entry is “ND (^ <4%)” and the CE entry is “ND (^ <4%)”. Besides, the HL entry was “ND (^ <4%)”, the MS entry is reported as “ND (^ <4%)”, the PS result is on record as “ND (^ <4%)” and the SH entry is given as “ND (^ <4%)”. Besides, the UK entry is “ND (^ <4%)”. For the same molecule, the “MED (minimal effective dose)” value under setting [1] was 1 mpk. In addition, under “hydrochloride, 3 mg/kg”, the AP entry is reported as “++++ (≥74%)” and the AX entry is on record as “ND (^ <4%)”.
With `CNC1CCc2c(csc2F)C1` (single isomer, unassigned) [Compound 76, 1-fluoro-N-methyl-4,5,6,7-tetrahydro-2-benzothiophen-5-amine hydrochloride], the AD result is recorded as “ND (^ <4%)”, the AG result is on record as “ND (^ <4%)”, the AN entry is listed as “ND (^ <4%)” and the CE result is given as “ND (^ <4%)”. Besides, the HL entry was “ND (^ <4%)”, the MS entry is recorded as “ND (^ <4%)”, the PS entry is on record as “ND (^ <4%)” and the SH result was “ND (^ <4%)”. For the same molecule, the UK entry is “ND (^ <4%)”. Also, the “MED (minimal effective dose)” value under setting [1] came to 3 mpk. Moreover, where the note is “hydrochloride, 3 mg/kg”, the AP result is “++ (≥24%)” and the AX result is “++ (≥24%)”.
`CNC1CCc2c(F)sc(F)c2C1` (single isomer, unassigned) [Compound 77, 1,3-difluoro-N-methyl-4,5,6,7-tetrahydro-2-benzothiophen-5-amine hydrochloride]: the AG result was “ND (^ <4%)”, the AN result is given as “ND (^ <4%)”, the AP entry is listed as “++ (≥24%)” and the CE result was “ND (^ <4%)”. For the same molecule, the HL entry is recorded as “ND (^ <4%)”, the MS entry is “ND (^ <4%)”, the PS result is reported as “ND (^ <4%)” and the SH result is recorded as “ND (^ <4%)”. Also, under setting [1], the “MED (minimal effective dose)” value stood at 0.3 mpk. Where the note is “hydrochloride, 3 mg/kg”, the AD result is given as “++ (≥24%)”, the AX entry is reported as “+ (≥4%)” and the UK entry is listed as “ND (^ <4%)”.
Take `CNC1CCc2c(F)sc(F)c2C1` (single isomer, unassigned) [Compound 78, 1,3-difluoro-N-methyl-4,5,6,7-tetrahydro-2-benzothiophen-5-amine hydrochloride]: the AG result is given as “ND (^ <4%)”, the AN entry is “ND (^ <4%)”, the AP entry is listed as “++ (≥24%)” and the CE result was “ND (^ <4%)”. For the same molecule, the HL result is “ND (^ <4%)”, the MS result is “ND (^ <4%)”, the PS entry is on record as “ND (^ <4%)” and the SH result is on record as “ND (^ <4%)”. Further, the “MED (minimal effective dose)” value under setting [1] worked out at 1 mpk. Also, for the setting “hydrochloride, 3 mg/kg”, the AD result was “ND (^ <4%)”, the AX result is listed as “++ (≥24%)” and the UK result is reported as “+ (≥4%)”.
As to `CNC1CCc2cc(F)sc2C1` (single isomer, unassigned) [Compound 80, 2-fluoro-N-methyl-4,5,6,7-tetrahydrobenzothiophen-6-amine hydrochloride], the AG result is reported as “ND (^ <4%)”, the AN entry is “ND (^ <4%)”, the CE entry was “ND (^ <4%)” and the HL result is on record as “ND (^ <4%)”. The MS result was “ND (^ <4%)”, the PS entry is recorded as “ND (^ <4%)”, the SH result is reported as “ND (^ <4%)” and the UK result is “ND (^ <4%)”. Further, the “MED (minimal effective dose)” value under setting [1] is reported as 3 mpk. Besides, where the note is “hydrochloride, 3 mg/kg”, the AD entry is reported as “++ (≥24%)”, the AP result is recorded as “+ (≥4%)” and the AX entry is reported as “+ (≥4%)”.
`CNC1CCc2cc(F)sc2C1` (single isomer, unassigned) [Compound 81, 2-fluoro-N-methyl-4,5,6,7-tetrahydrobenzothiophen-6-amine hydrochloride]: the AG entry is “ND (^ <4%)”, the AN result is “ND (^ <4%)”, the CE result is recorded as “ND (^ <4%)” and the HL result is recorded as “ND (^ <4%)”. The MS entry was “ND (^ <4%)”, the PS entry was “ND (^ <4%)”, the SH result is reported as “ND (^ <4%)” and the UK result is recorded as “ND (^ <4%)”. Besides, under setting [1], the “MED (minimal effective dose)” value amounted to 1 mpk. For the same molecule, where the note is “hydrochloride, 3 mg/kg”, the AD result is on record as “ND (^ <4%)”, the AP result is given as “++++ (≥74%)” and the AX entry is given as “ND (^ <4%)”.
As for `CNC1CCc2c(F)csc2C1` (single isomer, unassigned) [Compound 83, 3-fluoro-N-methyl-4,5,6,7-tetrahydrobenzothiophen-6-amine hydrochloride], the AG entry is listed as “ND (^ <4%)”, the AN entry was “ND (^ <4%)”, the HL entry was “ND (^ <4%)” and the MS entry is recorded as “ND (^ <4%)”. Besides, the PS entry is recorded as “ND (^ <4%)” and the UK entry is “ND (^ <4%)”. The “MED (minimal effective dose)” value under setting [1] was 1 mpk. Also, under “hydrochloride, 3 mg/kg”, the AD entry is “ND (^ <4%)”, the AP entry was “+++ (≥49%)”, the AX entry is “+ (≥4%)” and the CE result was “+ (≥4%)”. Besides, where the note is “hydrochloride, 3 mg/kg”, the SH result is “ND (^ <4%)”.
In the case of `CNC1CCc2c(F)csc2C1` (single isomer, unassigned) [Compound 84, 3-fluoro-N-methyl-4,5,6,7-tetrahydrobenzothiophen-6-amine hydrochloride], the AG entry is on record as “ND (^ <4%)”, the AN result is given as “ND (^ <4%)”, the HL result is reported as “ND (^ <4%)” and the MS entry was “ND (^ <4%)”. Further, the PS entry is “ND (^ <4%)” and the UK result is “ND (^ <4%)”. Also, the “MED (minimal effective dose)” value under setting [1] came out at 0.1 mpk. For the setting “hydrochloride, 3 mg/kg”, the AD result is “+ (≥4%)”, the AP entry was “ND (^ <4%)”, the AX result is given as “ND (^ <4%)” and the CE result is given as “ND (^ <4%)”. Further, the SH result (hydrochloride, 3 mg/kg) is reported as “+++ (≥49%)”.
With `CC1(N)CCc2ccsc2C1` (single isomer, unassigned) [Compound 111, 6-methyl-5,7-dihydro-4H-benzothiophen-6-amine hydrochloride], the AG entry is “ND (^ <4%)”, the AN result is “ND (^ <4%)”, the AP entry is “ND (^ <4%)” and the CE result is listed as “ND (^ <4%)”. Besides, the HL result is on record as “ND (^ <4%)”, the MS entry was “ND (^ <4%)”, the SH entry was “ND (^ <4%)” and the UK result is given as “ND (^ <4%)”. Where the note is “Mus musculus, ip, dose having 45% or more total activity in SmartCube, i.p., if only one dose was tested, that dose is shown, read-out: MED (minimal effective dose)”, the minimal effective dose was 3 mg/kg. Moreover, under “hydrochloride, 3 mg/kg”, the AD result was “++ (≥24%)”, the AX entry is reported as “++ (≥24%)” and the PS entry is “+ (≥4%)”.
For `CC1(N)CCc2ccsc2C1` (single isomer, unassigned) [Compound 112, 6-methyl-5,7-dihydro-4H-benzothiophen-6-amine hydrochloride], the AG entry is “ND (^ <4%)”, the AN result was “ND (^ <4%)”, the AP result is given as “ND (^ <4%)” and the CE result is listed as “ND (^ <4%)”. In addition, the HL entry is “ND (^ <4%)”, the MS result is on record as “ND (^ <4%)”, the SH entry is given as “ND (^ <4%)” and the UK result is “ND (^ <4%)”. Also, the “MED (minimal effective dose)” value under setting [1] was >3 mpk. For the same molecule, under “hydrochloride, 3 mg/kg”, the AD entry was “+ (≥4%)”, the AX result is “+ (≥4%)” and the PS entry is reported as “ND (^ <4%)”.
As for `CCc1scc2c1CCC(NC)C2` (single isomer, unassigned) [Compound 113, 1-ethyl-N-methyl-4,5,6,7-tetrahydro-2-benzothiophen-5-amine hydrochloride], the AG result is reported as “ND (^ <4%)”, the AN entry is recorded as “ND (^ <4%)”, the AX entry is reported as “ND (^ <4%)” and the CE entry is reported as “ND (^ <4%)”. In addition, the HL entry is “ND (^ <4%)”, the MS entry is listed as “ND (^ <4%)”, the PS result is recorded as “ND (^ <4%)” and the SH result is given as “ND (^ <4%)”. In addition, the UK result was “ND (^ <4%)”. The “MED (minimal effective dose)” value under setting [1] was found to be 0.3 mpk. For the same molecule, where the note is “hydrochloride, 3 mg/kg”, the AD entry was “+ (≥4%)” and the AP entry is on record as “++++ (≥74%)”.
Consider `CCc1scc2c1CCC(NC)C2` (single isomer, unassigned) [Compound 114, 1-ethyl-N-methyl-4,5,6,7-tetrahydro-2-benzothiophen-5-amine hydrochloride], for which the AG entry is reported as “ND (^ <4%)”, the AN entry is reported as “ND (^ <4%)”, the AX entry is “ND (^ <4%)” and the CE entry was “ND (^ <4%)”. Also, the HL result was “ND (^ <4%)”, the MS result is reported as “ND (^ <4%)”, the PS entry was “ND (^ <4%)” and the SH result is recorded as “ND (^ <4%)”. Also, the UK entry is “ND (^ <4%)”. Besides, the “MED (minimal effective dose)” value under setting [1] came to 3 mpk. Where the note is “hydrochloride, 3 mg/kg”, the AD entry is given as “+++ (≥49%)” and the AP result is recorded as “+ (≥4%)”.

By minimal effective dose is commonly meant the lowest level tested that produced the effect sought.
